As a reminder, the EC50 is the concentration giving half of the maximal effect.

SMILES strings stand for the structures. Structures can show the parent of a compound that is named as a salt.

For the experiment, the target named is Serine/threonine-protein kinase 33 (Homo sapiens, UniProt Q9BYT3). The experiment is described as follows: inhibition of STK33 phosphorylation of MBP – biochemical, luminescence, cell-free, retest, dose response (AID 2821).
Sequence of Serine/threonine-protein kinase 33 (Q9BYT3 whole entry): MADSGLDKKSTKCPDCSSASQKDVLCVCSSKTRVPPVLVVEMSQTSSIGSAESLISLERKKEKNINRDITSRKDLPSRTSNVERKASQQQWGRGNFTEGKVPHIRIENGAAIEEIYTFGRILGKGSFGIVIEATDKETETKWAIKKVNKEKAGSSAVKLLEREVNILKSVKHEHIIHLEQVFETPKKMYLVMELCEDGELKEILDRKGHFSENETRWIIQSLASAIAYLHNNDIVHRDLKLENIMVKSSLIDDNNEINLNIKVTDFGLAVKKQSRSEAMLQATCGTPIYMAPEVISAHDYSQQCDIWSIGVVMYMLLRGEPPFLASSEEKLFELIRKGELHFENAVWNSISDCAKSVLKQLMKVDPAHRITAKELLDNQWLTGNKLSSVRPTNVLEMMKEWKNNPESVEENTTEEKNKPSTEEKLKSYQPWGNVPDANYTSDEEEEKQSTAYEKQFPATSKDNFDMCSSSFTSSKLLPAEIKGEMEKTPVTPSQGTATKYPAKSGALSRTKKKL
`CC[C@H](CO)Nc1nc(Nc2cccc(Cl)c2)c2ncn(C(C)C)c2n1` [(R)-2-(6-(3-chlorophenylamino)-9-isopropyl-9H-purin-2-ylamino)butan-1-ol] had an EC50 of 2.49 µM. `Oc1cc(O)cc(/C=C/c2ccc(O)cc2O)c1` [(oxyresveratrol)4-[(E)-2-(3,5-dihydroxyphenyl)vinyl]benzene-1,3-diol]: a half-maximal effect (EC50) was put at 9.66 µM. Compared with the last compound, the EC50 is about 3.9-fold higher. In the case of `O=C1NC2c3ccccc3C(=O)N2c2c1cnn2-c1ccccc1` (stereo not drawn) [MLS000028140] it was more than 120 µM; in that of `c1coc(C2Nc3ccccc3-c3nc4ccccc4n32)c1` (stereo not drawn) [MLS000055458], 30.8 µM; in that of `CCCn1c(NC(=O)c2cccc(S(=O)(=O)N3CCCC3)c2)nc2ccccc21` [MLS000057540], 0.769 µM. Next, `CN(C)c1nc2sc3c(c2c(=O)n1C)CC(C)(C)OC3` [MLS000071412]: more than 120 µM; `COc1ccccc1NC(=O)Nc1ncccc1C` [MLS000072334]: 7.93 µM; `CCOC(=O)Cc1nnc(NC(=O)COc2ccc(C)cc2)s1` [MLS000082525]: more than 120 µM.

For the compound `c1cncc(C2Nc3ccccc3-c3nc4ccccc4n32)c1` (stereo not drawn) [MLS000098034], the concentration for a half-maximal effect (EC50) was found to be 27.1 µM.

As for `CN1CCN(C=NC2=NN(c3cccc(C(F)(F)F)c3)CC2)CC1` [MLS000418536], the EC50 is more than 120 µM. For `S=C(Nc1ccccc1)Nc1ccc2c[nH]nc2c1` [MLS000516600], the EC50 was determined as 19.5 µM. Next, `CCOc1cc(C=C(C#N)c2n[nH]c(N)c2C#N)ccc1O` [MLS000523215]: 8.62 µM; `COc1ccc(C(=O)ON=C(C)c2cccs2)cc1` [MLS000544771]: 29.1 µM.

Compound `CN1CCc2c(sc3c2c(=O)n(-c2ccccc2)c2n[nH]c(=S)n32)C1` [MLS000558136] displayed an EC50 of more than 120 µM. Next, `Cc1c(/C=C/C(=O)c2ccc(O)cc2)cnn1C` [MLS000578554]: 22.2 µM; `Cc1cccc(C(=N)NOC(=O)c2ccc3c(c2)OCO3)c1` [MLS000579340]: 37.3 µM. Next, `O=C1C=CC(=CCc2ccnc3ccccc23)C=C1` [MLS000705243]: 11.5 µM; `COc1ccc(/C=C/c2nc3ccccc3n2C)cc1` [MLS000719304]: 26.1 µM; `COc1cc(C=Nn2c(-c3cc(C)[nH]n3)n[nH]c2=S)ccc1O` [MLS000778764]: 27.6 µM. Turning to `O=C1/C(=C/c2ccc(O)c(O)c2)Oc2cc(O)ccc21` [MLS000863576], the concentration for a half-maximal effect (EC50) stood at 9.63 µM. Next, `CCC(C(=O)Nc1ccc2[nH]ncc2c1)c1ccccc1` (stereo not drawn) [MLS001001015]: 9.54 µM; `COc1ccc(NC(=S)Nc2ccc3cn[nH]c3c2)cc1` [MLS001005420]: more than 120 µM.

On to `CN(C)S(=O)(=O)c1cccc(NC(=S)Nc2ccc3cn[nH]c3c2)c1` [MLS001033726], for which the EC50 was 38.7 µM.

Compound `OCCN1CCN(c2nc(-c3ccccc3O)nc3ccccc23)CC1` [MLS001165184] gave a concentration giving a half-maximal response (EC50) of 23.1 µM. Compared with the last compound, the EC50 is about 1.7-fold lower. Next, `CCCCCCCCCCC[N+](C)(C)CC/C=C1/c2ccccc2Sc2ccc(Cl)cc21` [MLS001165405]: more than 120 µM; `COc1cccc(-c2onc3ccc(C(=O)/C=C/N(C)C)cc23)c1` [MLS001165915]: 12 µM; `O=C(O)c1cc(N=NCc2c(O)ccc3ccccc23)ccc1Cl` [MLS001173801]: 32.3 µM.

Consider `Cc1nc[nH]c1C(=O)NN=Cc1c(Cl)cccc1Cl` [MLS001182271], for which the EC50 is more than 120 µM.

On to `CC1CCN(C2=NC(=O)/C(=C/c3ccc(O)cc3)S2)CC1` [MLS001205076], for which the response was half-maximal at 10.4 µM (EC50). As to `Cc1ccc(C(=O)O/N=C(\N)c2ccccn2)c(Cl)c1` [MLS001206211], the EC50 came out at 32.2 µM. Next, `CC(=O)N(C)c1ccc(N=Cc2c(O)ccc3ccccc23)cc1` [MLS001212262]: 3.76 µM; `O=C(NCCCO)c1cc2c([nH]c3ccccc32)c(-c2ccccc2)n1` [MLS001214182]: 23.4 µM; `CN1CCCC1CCNc1ccc2oc3ccccc3c(=O)c2c1` (stereo not drawn) [MLS001249997]: more than 120 µM. Take `CCCCC(CC)CNC(=N)NC(=N)NCCCCCCNC(=N)NC(=N)NCC(CC)CCCC` (stereo not drawn) [MLS002153995]: the EC50 is more than 120 µM. Next, `COc1cc(C(=O)NC2CCN(C)CC2)ccc1Nc1ncc2c(n1)N(C1CCC(O)CC1)CCC(=O)N2C` (stereo not drawn) [MLS002232305]: 8.38 µM. Next, `CCOc1ccc(Nc2nc(N)c3ccccc3n2)cc1` [N2-(4-ethoxyphenyl)quinazoline-2,4-diamine;hydrochloride]: more than 120 µM; `c1ccc(Nc2ccnc(Nc3ccccc3)n2)cc1` [N*2*,N*4*-Diphenyl-pyrimidine-2,4-diamine]: 14.9 µM. Next, `Cc1cc(O)ccc1NS(=O)(=O)c1ccc2c3c(cccc13)C(=O)N2` [N-(2-methyl-4-oxidanyl-phenyl)-2-oxidanylidene-1H-benzo[cd]indole-6-sulfonamide]: 19.2 µM; `CCOc1ccccc1C(=O)Nc1cc(Cl)ccc1O` [N-(5-chloranyl-2-oxidanyl-phenyl)-2-ethoxy-benzamide]: 6.82 µM; `CCn1c2ccc(C(C)N=O)cc2c2cc(C(C)N=O)ccc21` (stereo not drawn) [N-[1-[9-ethyl-6-(C-methyl-N-oxidanyl-carbonimidoyl)carbazol-3-yl]ethylidene]hydroxylamine]: more than 120 µM. `O=C(Nc1ccccc1-c1nc2ccccc2[nH]c1=O)c1cccs1` [N-[2-(3-oxo-4H-quinoxalin-2-yl)phenyl]-2-thiophenecarboxamide]: the concentration for a half-maximal effect (EC50) is 2.1 µM. That is a single-digit micromolar value. As for `CN1CCN(c2ccc(NC(=O)c3ccc(-c4cccc([N+](=O)[O-])c4)o3)cc2)CC1` [N-[4-(4-methylpiperazin-1-yl)phenyl]-5-(3-nitrophenyl)furan-2-carboxamide], a half-maximal response (EC50) required 20.2 µM. Next, `CS(=O)(=O)Nc1ccc(-c2cc(C=C3SC(N)=NC3=O)c[nH]c2=O)cc1` [N-[4-[5-[(Z)-(2-azanyl-4-oxidanylidene-1,3-thiazol-5-ylidene)methyl]-2-oxidanylidene-1H-pyridin-3-yl]phenyl]methanesulfonamide]: 8.09 µM; `C=CC(=O)Nc1ccc(Nc2nc(NC3CCC(N(C)C)CC3)nc3c2ncn3C(C)C)cc1` (stereo not drawn) [N-[4-[[2-[[4-(dimethylamino)cyclohexyl]amino]-9-propan-2-yl-purin-6-yl]amino]phenyl]prop-2-enamide]: 0.883 µM. In the case of `C=CC(=O)Nc1ccc(CN2C(=O)N(c3c(Cl)c(OC)cc(OC)c3Cl)Cc3cnc(NCCCCN(CC)CC)nc32)cc1` [N-[4-[[3-[2,6-bis(chloranyl)-3,5-dimethoxy-phenyl]-7-[4-(diethylamino)butylamino]-2-oxidanylidene-4H-pyrimido[4,5-d]pyrimidin-1-yl]methyl]phenyl]prop-2-enamide] it was 0.618 µM; in that of `COc1ccc(-c2oc3ncnc(NCCCN(C)C)c3c2-c2ccc(OC)cc2)cc1` [N-[5,6-bis(4-methoxyphenyl)furo[2,3-d]pyrimidin-4-yl]-N',N'-dimethyl-propane-1,3-diamine], 33.6 µM.

Turning to `COC(=O)Nc1nnc(Cc2ccccc2)s1` [N-[5-(phenylmethyl)-1,3,4-thiadiazol-2-yl]carbamic acid methyl ester], the EC50 was more than 120 µM. `Cc1occc1C(=O)NN=Cc1ccc(N(C)C)cc1` [N-[[4-(dimethylamino)phenyl]methylideneamino]-2-methylfuran-3-carboxamide] gave a half-maximal effective concentration (EC50) of more than 120 µM.

(Values after BindingDB's records for doi:10.7270/Q2B27SRF (Broad Institute, 2010).)
